Assay results from ChEMBL document CHEMBL1201862, “PubChem BioAssay data set” (2004).
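Dose response: 5 concentrations. Exposure: 48 h. Format: 96-well plates. Endpoint: linear interpolation; highest concentration if not reached. GI50: concentration for 50% inhibition of growth.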 Calls of active or inactive are those of the source. No stated cut-off is given here; in the data, active = GI50 up to about 1.1 µM and inactive = higher.

Key:
Experiment in all cases: NCI anticancer screen, dose series, 48 h
A498 = tested on: A498
A549 = tested on: A549
CCRF-CEM = tested on: CCRF-CEM
HCT-116 = tested on: HCT-116
HT-29 = tested on: HT-29
IGROV-1 = tested on: IGROV-1
KM12 = tested on: KM12
Malme-3M = tested on: Malme-3M
NCI-H522 = tested on: NCI-H522
OVCAR-3 = tested on: OVCAR-3
OVCAR-4 = tested on: OVCAR-4
RPMI-8226 = tested on: RPMI-8226
SK-MEL-5 = tested on: SK-MEL-5
SR = tested on: SR
SW-620 = tested on: SW-620
T47D = tested on: T47D
TK-10 = tested on: TK-10
UACC-62 = tested on: UACC-62
UO-31 = tested on: UO-31
MCF7 = tested on: MCF7

Measured: GI50

c1ccc2sc(SCSc3nc4ccccc4s3)nc2c1
inactive: A498 > 100 µM | A549 81.3 µM | CCRF-CEM 47.4 µM | HCT-116 34.1 µM | HT-29 72.1 µM | IGROV-1 > 100 µM | KM12 > 100 µM | Malme-3M > 100 µM | NCI-H522 57.8 µM | OVCAR-3 92.7 µM | OVCAR-4 > 100 µM | RPMI-8226 51.5 µM | SK-MEL-5 30.1 µM | SR 7.08 µM | SW-620 96.8 µM | T47D > 100 µM | TK-10 66.4 µM | UACC-62 71 µM | UO-31 86.1 µM

Oc1c2c(nc3cc4c(cc13)OCO4)-c1ccccc1CCC2
inactive: A498 > 50 µM | A549 > 50 µM | CCRF-CEM > 50 µM | HCT-116 28.1 µM | HT-29 34.4 µM | IGROV-1 30.2 µM | KM12 > 50 µM | MCF7 26.5 µM | Malme-3M > 50 µM | NCI-H522 > 50 µM | OVCAR-3 > 50 µM | OVCAR-4 30.2 µM | RPMI-8226 > 50 µM | SK-MEL-5 45.6 µM | SR 12.3 µM | SW-620 > 50 µM | TK-10 > 50 µM | UACC-62 > 50 µM | UO-31 > 50 µM

CCOC(=O)c1ccc(-c2cc(C)no2)[nH]1
inactive: A498 63.7 µM | A549 51.5 µM | CCRF-CEM > 100 µM | HCT-116 75.3 µM | HT-29 > 100 µM | IGROV-1 > 100 µM | KM12 31.8 µM | Malme-3M > 100 µM | NCI-H522 76.2 µM | OVCAR-3 81.8 µM | OVCAR-4 74.6 µM | RPMI-8226 > 100 µM | SK-MEL-5 81.3 µM | SW-620 45.3 µM | T47D 68.5 µM | TK-10 > 100 µM | UACC-62 59.8 µM | UO-31 > 100 µM

Cc1cc(C[C@H]2O[C@@H]3OC(C)(C)O[C@@H]3[C@H]3OC(C)(C)O[C@H]32)c2ccccc2n1
inactive: A498 > 100 µM | A549 63.4 µM | CCRF-CEM 42.1 µM | HCT-116 72.6 µM | HT-29 > 100 µM | IGROV-1 49.8 µM | KM12 54.8 µM | Malme-3M 64.9 µM | NCI-H522 16 µM | OVCAR-4 > 100 µM | RPMI-8226 27.1 µM | SK-MEL-5 55.6 µM | SR 34.8 µM | SW-620 > 100 µM | T47D 63.5 µM | TK-10 > 100 µM | UACC-62 > 100 µM | UO-31 33.3 µM

CCO/C=N/C1=C(C#N)C(c2ccc(OC)c(OC)c2)c2c(-c3ccccc3)nn(-c3ccccc3)c2O1 (centres undefined)
inactive: A549 18.3 µM | CCRF-CEM 2.23 µM | HCT-116 13.1 µM | HT-29 19.1 µM | IGROV-1 3.16 µM | KM12 8.02 µM | MCF7 16.6 µM | Malme-3M 19 µM | NCI-H522 10.6 µM | OVCAR-3 16.1 µM | RPMI-8226 21.4 µM | SK-MEL-5 12 µM | SW-620 11.8 µM | T47D 9.14 µM | UACC-62 14.4 µM | UO-31 17.7 µM

O=C(Nn1c(-c2ccccc2)nc2ccccc2c1=O)c1ccccn1
inactive: A498 15.4 µM | A549 > 100 µM | CCRF-CEM 41.5 µM | HCT-116 57.4 µM | HT-29 65.3 µM | IGROV-1 > 100 µM | KM12 83.6 µM | Malme-3M > 100 µM | NCI-H522 72.8 µM | OVCAR-3 79.3 µM | OVCAR-4 > 100 µM | RPMI-8226 > 100 µM | SK-MEL-5 37.7 µM | SR > 100 µM | SW-620 > 100 µM | T47D > 100 µM | TK-10 > 100 µM | UACC-62 42.3 µM | UO-31 > 100 µM
